We go through five compounds from publication PMC10672402 (Marine Drugs, 2023).

In experiment [1] the target is T1, acetylcholinesterase (AChE) (Homo sapiens, UniProt P22303).
T1 construct: purchased Solarbio, Beijing, China
Kind of experiment: acetylcholinesterase (AChE) inhibition, modified Ellman method. The note with it: concentration of 50 μg/mL; read-out: inhibition rate against AChE. The experiment is classed as biochemical.

The target of the next experiment is T2, pancreatic lipase (PL) (Homo sapiens, UniProt P16233).
T2 sequence (P16233 17-465): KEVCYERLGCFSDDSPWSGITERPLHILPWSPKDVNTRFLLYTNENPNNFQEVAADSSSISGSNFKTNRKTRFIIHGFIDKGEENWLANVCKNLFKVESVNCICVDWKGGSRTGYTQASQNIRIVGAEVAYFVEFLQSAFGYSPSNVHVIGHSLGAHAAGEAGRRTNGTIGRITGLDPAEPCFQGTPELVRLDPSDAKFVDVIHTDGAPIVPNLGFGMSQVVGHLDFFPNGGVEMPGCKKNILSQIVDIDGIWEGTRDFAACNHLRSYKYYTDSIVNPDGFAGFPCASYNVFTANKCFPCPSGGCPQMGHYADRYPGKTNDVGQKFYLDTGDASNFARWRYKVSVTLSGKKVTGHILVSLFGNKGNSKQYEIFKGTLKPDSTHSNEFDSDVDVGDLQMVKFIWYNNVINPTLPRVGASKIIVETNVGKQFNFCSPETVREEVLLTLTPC
Description: pancreatic lipase (PL) inhibitory assay. The experiment is classed as biochemical.

SMILES strings stand for the structures.

T1 sequence (P22303 32-614, species assumed): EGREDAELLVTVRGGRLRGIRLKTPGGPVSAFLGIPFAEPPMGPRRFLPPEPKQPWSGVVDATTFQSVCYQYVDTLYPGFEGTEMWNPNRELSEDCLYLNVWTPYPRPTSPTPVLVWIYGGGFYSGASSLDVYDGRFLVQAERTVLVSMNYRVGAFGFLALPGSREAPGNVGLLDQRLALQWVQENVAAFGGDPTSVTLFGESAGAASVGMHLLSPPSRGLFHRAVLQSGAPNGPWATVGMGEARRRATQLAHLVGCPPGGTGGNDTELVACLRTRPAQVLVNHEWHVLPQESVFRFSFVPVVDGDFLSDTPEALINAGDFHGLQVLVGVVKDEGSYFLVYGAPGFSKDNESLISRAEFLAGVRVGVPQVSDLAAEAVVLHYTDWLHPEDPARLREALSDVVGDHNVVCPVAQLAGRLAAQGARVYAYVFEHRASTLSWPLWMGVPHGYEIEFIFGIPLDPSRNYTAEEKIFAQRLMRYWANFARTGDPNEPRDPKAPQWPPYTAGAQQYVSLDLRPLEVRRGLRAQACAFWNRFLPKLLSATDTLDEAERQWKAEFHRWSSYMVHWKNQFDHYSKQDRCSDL

As for `CCC(C)C1(O)OC(C)C2(OC)C(=O)C(C)=C(OC)C12` (centres unmarked) [Compound 1, asperpentenone B], the inhibition at 50 µg/mL in experiment [1] lay within 20 to 26%. For `C/C=C/C=C/[C@@H]1Cc2c(CC(=O)O)c(O)cc(O)c2O1` [Compound 3, asperpentenone D], the half-inhibitory concentration (IC50) at pancreatic lipase (PL) is 127 µM. With `CCC(C)C(=O)Cc1oc(=O)c(C)c(O)c1C` (centres unmarked) [Compound 10, paecilpyrone A], the inhibition at 50 µg/mL in experiment [1] was in the range of 20 to 26%. With `COC(=O)Cc1cccc(O)c1` [Compound 13, methyl-hydroxyphenylaceta], the inhibition at 50 µg/mL in experiment [1] is 20 to 26%. `COc1cc(/C=C/C(=O)O)ccc1O` [Compound 14, trans-ferulic acid]: in experiment [1], the inhibition at 50 µg/mL fell in the range of 20 to 26%.

For orientation: inhibition means how much of the control response was suppressed. For orientation: IC50 means the concentration needed to halve the response being measured.
